According to the NIST ThermoML archive (doi:10.1016/j.fluid.2012.09.038):
± gives the expanded uncertainty stated by the source.

Tests used:
[1] = refractive index (Na D-line) (dimensionless); conditions: 101.33 kPa, Liquid, Standard Abbe refractometry
[2] = 101.33 kPa, Liquid, Vibrating tube method

Row | refractive index ([1]; 293.2 K) | mass density ([2]; 293.2 K) [kg/m3] | refractive index ([1]; 298.2 K) | mass density ([2]; 298.2 K) [kg/m3] | Structure (SMILES)
1 | 1.4049 ± 0.0008 | 887.9 ± 0.2 |  |  | CC(=O)CCC(C)C [5-methyl-2-hexanone]
2 |  |  | 1.3324 ± 0.0008 |  | O [water]
3 |  |  | 1.3975 ± 0.0008 | 866.7 ± 0.2 | CC(=O)OCCC(C)C [3-methylbutyl ethanoate]
